# Test results published in PubChem BioAssay AID588371 (Southern Research Specialized Biocontainment Screening …, 2011).
# pIC50: −log10 of the molar value. Several values for one entry are separate records, joined by “and”; a condition that tells them apart may be missing. Identical values can stand only once. Records with an inconclusive call do not appear. Activity calls are given as the source filed them. No rule for the calls is given here.
# System: not listed separately
# Assay: WNV inhibition in infected cells – cell-based, EC_1, probe candidates, dose response (AID 588371)
# Details: West Nile virus-infected cells, antiviral inhibition; at 50 µM (top of the series)
row,SMILES,inhibition
1,O=C(CSc1nc2ccccc2c(=O)n1-c1ccccc1)Nc1nc(-c2ccccc2)cs1,0.7% (inactive)
2,O=C(CSc1nc2ccccc2c(=O)n1-c1ccc(Cl)c(Cl)c1)Nc1cccc2c1CCC2,-1.69% (inactive)
3,Cc1cnc(NC(=O)CSc2nc3ccccc3c(=O)n2-c2ccccc2)s1,-1.61% (inactive)
4,O=C(CSc1nc2ccccc2c(=O)n1-c1cc(Cl)cc(Cl)c1)NC1CCc2ccccc21 (stereo not given),11.3% (inactive)
5,O=C(CSc1nc2ccccc2c(=O)n1-c1cc(Cl)cc(Cl)c1)Nc1nccs1,18.5% (inactive)
6,O=C(CSc1nc2cccc(F)c2c(=O)n1-c1ccccc1)Nc1ccc2c(c1)CCC2,-0.4% (inactive)
7,O=C(CSc1nc2cccc(F)c2c(=O)n1-c1ccc(F)c(F)c1)Nc1ccc2c(c1)CCC2,1.72% (inactive)
8,O=C(CSc1nc2cccc(F)c2c(=O)n1-c1ccc(Cl)c(F)c1)Nc1ccc2c(c1)CCC2,-1.63% (inactive)
9,O=C(CCSc1nc2cccc(F)c2c(=O)n1-c1cc(F)c(F)c(F)c1)Nc1ccc2c(c1)CCC2,9.08% (inactive)
10,O=C(CSc1nc2cccc(F)c2c(=O)n1-c1ccccc1)Nc1ccc2ncsc2c1,1.43% (inactive)

# Same assay, conditions: West Nile virus-infected cells, antiviral inhibition; at 100 µM (top of the series)
row,SMILES,inhibition
1,O=C(CCCSc1nc2cccc(F)c2c(=O)n1-c1ccc(Cl)c(Cl)c1)Nc1ccc2c(c1)CCC2,-2.38% (inactive)
2,O=C(CSc1nc2ccccc2c(=O)n1-c1ccccc1)Nc1cccc(-c2ccccc2)c1,0.04% (inactive)
3,O=C(CSc1nc2ccccc2c(=O)n1-c1cc(Cl)cc(Cl)c1)Nc1cccc2ccccc12,-0.85% (inactive)
4,O=C(CCSc1nc2ccccc2c(=O)n1-c1ccc(Cl)c(Cl)c1)Nc1ccc2c(c1)CCC2,-2.58% (inactive)
5,O=C(CCCCSc1nc2cccc(F)c2c(=O)n1-c1ccc(Cl)c(Cl)c1)Nc1ccc2c(c1)CCC2,-1.71% (inactive)
6,O=C(CSc1nc2ccccc2c(=O)n1-c1ccc(F)c(Cl)c1)Nc1cccc2ccccc12,-1.32% (inactive)
7,O=C(CCCCSc1nc2cccc(F)c2c(=O)n1-c1cc(F)c(F)c(F)c1)Nc1ccc2c(c1)CCC2,-1.19% (inactive)
8,O=C(CSc1nc2cccc(F)c2c(=O)n1-c1ccc(Cl)c(Cl)c1)Nc1ccc2c(c1)CCC2,-2.48% (inactive)
9,O=C(CCCSc1nc2cccc(F)c2c(=O)n1-c1cc(F)c(F)c(F)c1)Nc1ccc2c(c1)CCC2,-2.94% (inactive)
10,O=C(CCCSc1nc2cccc(F)c2c(=O)n1-c1ccc(Cl)c(F)c1)Nc1ccc2c(c1)CCC2,-2.66% (inactive)
11,O=C(CSc1nc2ccccc2c(=O)n1-c1ccccc1)N1CCCCCC1,-1.69% (inactive)
12,O=C(CCCCSc1nc2cccc(F)c2c(=O)n1-c1ccc(F)c(F)c1)Nc1ccc2c(c1)CCC2,0.09% (inactive)
13,O=C(CCSc1nc2cccc(F)c2c(=O)n1-c1ccc(F)c(F)c1)Nc1ccc2c(c1)CCC2,-1.56% (inactive)
14,O=C(CSc1nc2ccccc2c(=O)n1-c1ccccc1)NC1Cc2ccccc2C1,-2% (inactive)
15,O=C(CCSc1nc2cccc(F)c2c(=O)n1-c1ccc(Cl)c(F)c1)Nc1ccc2c(c1)CCC2,3.09% (inactive)
16,O=C(CSc1nc2ccccc2c(=O)n1-c1ccccc1)Nc1nc2cc(Cl)ccc2o1,8.31% (inactive)
17,O=C(CSc1nc2ccccc2c(=O)n1-c1ccc(Cl)c(Cl)c1)Nc1ccc2c(c1)OCO2,-2.42% (inactive)
18,O=C(CSc1nc2ccccc2c(=O)n1-c1cc(Cl)cc(Cl)c1)NC1Cc2ccccc2C1,-3.26% (inactive)
19,O=C(CSc1nc2cccc(F)c2c(=O)n1-c1ccccc1)NC1Cc2ccccc2C1,0.89% (inactive)
20,O=C(CCCCSc1nc2cccc(F)c2c(=O)n1-c1ccc(Cl)c(F)c1)Nc1ccc2c(c1)CCC2,-0.34% (inactive)
21,O=C(CSc1nc2ccccc2c(=O)n1-c1ccccc1)Nc1cccc2c1CCC2,1.83% (inactive)
22,O=C(CSc1nc2cccc(F)c2c(=O)n1-c1ccc(F)c(Br)c1)Nc1ccc2c(c1)CCC2,-2.48% (inactive)
23,O=C(CSc1nc2ccccc2c(=O)n1-c1ccccc1)NC1CCc2ccccc21 (stereo not given),-0.61% (inactive)

row,SMILES,inhibition
1,O=C(CSc1nc2ccccc2c(=O)n1-c1ccccc1)Nc1nccs1,-0.12% (inactive)
2,O=C(CSc1nc2ccccc2c(=O)n1-c1ccccc1)Nc1ccc2c(c1)OCO2,2.32% (inactive)
3,O=C(CSc1nc2ccccc2c(=O)n1-c1ccc(Cl)c(Cl)c1)Nc1cccc2ccccc12,-1.85% (inactive)
4,O=C(CSc1nc2ccccc2c(=O)n1-c1ccccc1)Nc1ncc([N+](=O)[O-])s1,-1.85% (inactive)
5,O=C(CSc1nc2ccccc2c(=O)n1-c1ccccc1)Nc1cccc2ccccc12,-1.05% (inactive)
6,O=C(CCCCSc1nc2ccccc2c(=O)n1-c1ccccc1)Nc1ccc2c(c1)CCC2,18.5% (inactive)
7,O=C(CCCSc1nc2ccccc2c(=O)n1-c1ccccc1)Nc1ccc2c(c1)CCC2,-0.62% (inactive)
8,O=C(CCSc1nc2cccc(F)c2c(=O)n1-c1ccc(F)c(Br)c1)Nc1ccc2c(c1)CCC2,-1.52% (inactive)
9,O=C(CSc1nc2cccc(F)c2c(=O)n1-c1ccccc1)NC1CCCc2ccccc21 (stereo not given),-0.94% (inactive)
10,O=C(CSc1nc2cccc(F)c2c(=O)n1-c1ccccc1)Nc1cccc2c1CCC2,-1.2% (inactive)
11,O=C(CCCSc1nc2cccc(F)c2c(=O)n1-c1ccccc1)Nc1ccc2c(c1)CCC2,-2.02% (inactive)
12,O=C(CSc1nc2ccccc2c(=O)n1-c1ccccc1)Nc1ccc2ncsc2c1,-0.65% (inactive)
13,Cc1csc(NC(=O)CSc2nc3ccccc3c(=O)n2-c2ccccc2)n1,-3.31% (inactive)
14,O=C(CCCSc1nc2cccc(F)c2c(=O)n1-c1ccc(F)c(Br)c1)Nc1ccc2c(c1)CCC2,-2.67% (inactive)
15,O=C(CCCSc1nc2cccc(F)c2c(=O)n1-c1ccc(F)c(F)c1)Nc1ccc2c(c1)CCC2,-2.48% (inactive)
16,O=C(CCCCSc1nc2cccc(F)c2c(=O)n1-c1ccccc1)Nc1ccc2c(c1)CCC2,-1.05% (inactive)
17,O=C(CSc1nc2ccccc2c(=O)n1-c1ccccc1)NC1CCCc2ccccc21 (stereo not given),-2% (inactive)
18,O=C(CSc1nc2cccc(F)c2c(=O)n1-c1ccccc1)Nc1ccc2c(c1)OCO2,0.09% (inactive)
19,O=C(CCSc1nc2cccc(F)c2c(=O)n1-c1ccc(Cl)c(Cl)c1)Nc1ccc2c(c1)CCC2,-1.05% (inactive)
20,Cc1nc2cc(NC(=O)CSc3nc4ccccc4c(=O)n3-c3ccccc3)ccc2s1,2.35% (inactive)
21,O=C(CSc1nc2cccc(F)c2c(=O)n1-c1ccccc1)Nc1cccc2ccccc12,-1.94% (inactive)
22,O=C(CSc1nc2ccccc2c(=O)n1-c1ccccc1)Nc1nc2ccc([N+](=O)[O-])cc2s1,-2.6% (inactive)
23,O=C(CCCCSc1nc2cccc(F)c2c(=O)n1-c1ccc(F)c(Br)c1)Nc1ccc2c(c1)CCC2,-1.81% (inactive)

# System: West Nile virus-infected cells, antiviral inhibition
# Assay: as above
# Details: not given
row,SMILES,pIC50
1,O=C(CSc1nc2cccc(F)c2c(=O)n1-c1cc(F)c(F)c(F)c1)Nc1ccc2c(c1)CCC2,4.78
2,O=C(CSc1nc2ccccc2c(=O)n1-c1ccccc1)Nc1ccc2c(c1)CCC2,5.04 and 4.93
3,O=C(CSc1nc2ccccc2c(=O)n1-c1ccc(Cl)c(Cl)c1)Nc1ccc2c(c1)CCC2,5.09
4,O=C(CSc1nc2ccccc2c(=O)n1-c1cc(Cl)cc(Cl)c1)Nc1ccc2c(c1)CCC2,5.56
